Measured values taken from ChEMBL document CHEMBL4152367, “Discovery of a Potent Thiazolidine Free Fatty Acid Receptor 2 Agonist with Favorable Pharmacokinetic Properties” (J Med Chem, 2018).
Calls of active or inactive are those of the source. No cut-off for these calls is given here.

How the values were obtained:
[1] = AUC (0 to infinity) in Balb/c mouse at 5 mg/kg, ip by HPLC-MS/MS analysis; format: ADME, organism-based; parameters: dose 5 mg/kg, time infinity, route intraperitoneal; conditions: in vivo
[2] = Half life in Balb/c mouse at 5 mg/kg, ip by HPLC-MS/MS analysis; format: ADME, organism-based; conditions: in vivo
[3] = molecular target: T1, Free fatty acid receptor 2 (Mus musculus, UniProt Q8VCK6); test: Agonist activity at FFA2R in mouse mature adipocytes assessed as inhibition of isoproterenol-induced glycerol production
T1 sequence (Q8VCK6 whole entry): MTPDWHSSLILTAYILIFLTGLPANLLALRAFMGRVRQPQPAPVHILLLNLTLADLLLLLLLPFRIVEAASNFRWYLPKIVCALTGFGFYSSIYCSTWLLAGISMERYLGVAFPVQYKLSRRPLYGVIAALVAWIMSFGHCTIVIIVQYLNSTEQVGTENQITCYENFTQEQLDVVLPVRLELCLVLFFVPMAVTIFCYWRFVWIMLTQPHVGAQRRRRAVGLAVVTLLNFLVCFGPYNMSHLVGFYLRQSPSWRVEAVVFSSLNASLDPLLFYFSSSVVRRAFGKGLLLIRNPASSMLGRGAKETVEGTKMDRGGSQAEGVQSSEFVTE

[4] = molecular target: T2, Free fatty acid receptor 2 (Homo sapiens) (UniProt O15552); test: Agonist activity at human FFA2R expressed in Flp-InT-REx 293 cells assessed as reduction of forskolin-induced cAMP production up to 30 uM after 30 mins by TR-FRET assay relative to control; format: functional, cell-based
T2 sequence (whole entry): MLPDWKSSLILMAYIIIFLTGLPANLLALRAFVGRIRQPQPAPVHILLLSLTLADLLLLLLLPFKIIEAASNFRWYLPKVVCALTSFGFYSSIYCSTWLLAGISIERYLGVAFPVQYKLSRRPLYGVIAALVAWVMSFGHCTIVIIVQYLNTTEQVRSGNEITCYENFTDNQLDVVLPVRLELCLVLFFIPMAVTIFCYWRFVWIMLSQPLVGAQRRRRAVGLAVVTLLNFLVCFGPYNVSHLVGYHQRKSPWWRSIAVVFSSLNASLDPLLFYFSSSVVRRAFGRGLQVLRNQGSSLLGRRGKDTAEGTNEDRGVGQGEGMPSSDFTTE

[5] = molecular target: T2, Free fatty acid receptor 2 (Homo sapiens); test: Agonist activity to human FFA2R expressed in HEK293T cells assessed as induction beta-arrestin-2 recruitment up to 30 uM after 10 mins by BRET assay relative control; format: functional, cell-based
[6] = molecular target: T2, Free fatty acid receptor 2 (Homo sapiens); test: Agonist activity to human FFA2R expressed in HEK293T cells assessed as induction beta-arrestin-2 recruitment at 100 uM after 10 mins by BRET assay relative to control; format: functional, cell-based

Row | SMILES | Activity [4] | Activity [5] | other results
1 | COc1ccccc1-c1ccc(C(=O)N2[C@@H](c3ccccc3Cl)CC[C@H]2C(=O)O)cc1 | – | – | AUC(0-inf) [1]: 417 ng·h/mL; half-life [2]: 50 min
2 | CCC(=O)O [PROPIONIC ACID] | – | – | EC50 [3]: 251 µM
3 | COc1ccccc1-c1ccc(C(=O)N2[C@H](C(=O)O)CO[C@@H]2C(C)(C)C)cc1 | inactive | inactive | –
4 | O=C(O)[C@@H]1CS[C@H](c2ccccc2Cl)N1C(=O)c1ccccc1 | inactive | inactive | –
5 | COc1ccccc1-c1ccc(C(=O)N2[C@H](C(=O)O)CS[C@@H]2C(C)(C)C)cc1 | inactive | – | Activity [6]: 50%
6 | Cc1noc(C)c1-c1ccc(C(=O)N2[C@@H](c3ccccn3)SC[C@H]2C(=O)O)cc1 | inactive | – | –
